From patent publication US8889876B2, “Histone deacetylase inhibitors and uses thereof” (Jiangsu Hengyi Pharmaceutical Co., Ltd., priority 2008, dated 2014)

What was measured:
[1] = tested on: Hep3B2.1-7 human liver cancer cells; assay: CCK-8 proliferation inhibition, Hep3B2.1-7; assay type: cell-based; conditions: CCK-8 method; for inhibition at 10 µM / inhibition at 100 µM: Homo sapiens, Hep3B
Procedure: (§1) Detecting the inhibition rate of the compound concentrations of 100 μM and 10 μM to Hut78 T-cell Leukemia cell, Jurkat E6-1 human T-cell lymphoma, PANC-1 human pancreatic cancer cells, A549 human lung cancer cells, K562 human chronic myeloid leukemia cells, Hep3B2.1-7 human liver cancer cells, MDA-MB-435s human breast cancer cells, Colo320 human rectal cancer cells and PC-3 human prostate cancer using CCK-8 method.

[2] = tested on: Hut78 T-cell Leukemia cell; assay: CCK-8 proliferation inhibition, Hut78; assay type: cell-based; conditions: for inhibition at 10 µM / inhibition at 100 µM: Homo sapiens, read-out: Hut-78 (inhibition %); for inhibition at 10 µM: HuT78, 10 μM; for inhibition at 100 µM: HuT78, 100 μM
Procedure: as §1

[3] = tested on: K562 human chronic myeloid leukemia cells; assay: CCK-8 proliferation inhibition, K562; assay type: cell-based; conditions: for inhibition at 10 µM / inhibition at 100 µM: Homo sapiens; for inhibition at 10 µM: K562, 10 μM; for inhibition at 100 µM: K562, 100 μM
Procedure: as §1

[4] = tested on: PC-3 human prostate cancer; assay: CCK-8 proliferation inhibition, PC-3; assay type: cell-based; conditions: CCK-8 method; for inhibition at 10 µM / inhibition at 100 µM: Homo sapiens
Procedure: as §1

[5] = tested on: MDA-MB-435s human breast cancer cells; assay: CCK-8 proliferation inhibition, MDA-MB-435s; assay type: cell-based; conditions: CCK-8 method; for inhibition at 10 µM / inhibition at 100 µM: Homo sapiens, MDA-MB-435S
Procedure: as §1

histone deacetylase = assay: in vitro inhibition of histone deacetylase by HDAC inhibitor screening kit (Biovision K340-100); assay type: biochemical
Procedure: An assay for determining the in vitro inhibition activity of the compound on histone deacetylase is conducted according to the specification of HDAC inhibitor screeing kid (Biovision Company/Catalog #K340-100). […]

[6] = tested on: Colo320 human rectal cancer cells; assay: CCK-8 proliferation inhibition, Colo320; assay type: cell-based; conditions: CCK-8 method; for inhibition at 10 µM / inhibition at 100 µM: Homo sapiens, COLO 320
Procedure: as §1

[7] = tested on: PANC-1 human pancreatic cancer cells; assay: CCK-8 proliferation inhibition, PANC-1; assay type: cell-based; conditions: for inhibition at 10 µM / inhibition at 100 µM: Homo sapiens; for inhibition at 10 µM: PANC-1, 10 μM; for inhibition at 100 µM: PANC-1, 100 μM
Procedure: as §1

[8] = tested on: Jurkat E6-1 human T-cell lymphoma; assay: CCK-8 proliferation inhibition, Jurkat E6-1; assay type: cell-based; conditions: for inhibition at 10 µM / inhibition at 100 µM: Homo sapiens; for inhibition at 10 µM: Jurkat E6.1, 10 μM; for inhibition at 100 µM: Jurkat E6.1, 100 μM
Procedure: as §1

[9] = tested on: A549 human lung cancer cells; assay: CCK-8 proliferation inhibition, A549; assay type: cell-based; conditions: CCK-8 method; for inhibition at 10 µM / inhibition at 100 µM: Homo sapiens, A549
Procedure: as §1

| Inhibition rate(%) (histone deacetylase; 3.91 μM) | Inhibition rate(%) (histone deacetylase; 62.5 μM) | Inhibition rate(%) (histone deacetylase; 2 mM) | Compound | inhibition at 10 µM ([1]; compound concentration 10 μM) [%] | inhibition at 100 µM ([1]; compound concentration 100 μM) [%] | inhibition at 10 µM [2] [%] | inhibition at 100 µM [2] [%] | inhibition at 10 µM [3] [%] | inhibition at 100 µM [3] [%] | inhibition at 10 µM ([4]; compound concentration 10 μM) [%] | inhibition at 100 µM ([4]; compound concentration 100 μM) [%] | inhibition at 10 µM ([5]; compound concentration 10 μM) [%] | inhibition at 100 µM ([5]; compound concentration 100 μM) [%] | inhibition at 10 µM ([6]; compound concentration 10 μM) [%] | inhibition at 100 µM ([6]; compound concentration 100 μM) [%] | inhibition at 10 µM [7] [%] | inhibition at 100 µM [7] [%] | inhibition at 10 µM [8] [%] | inhibition at 100 µM [8] [%] | inhibition at 10 µM ([9]; compound concentration 10 μM) [%] | also measured |
| --- | --- | --- | --- | --- | --- | --- | --- | --- | --- | --- | --- | --- | --- | --- | --- | --- | --- | --- | --- | --- | --- |
| 9.5 | 36.0 | 78.2 | Nc1cnccc1NC(=O)c1ccc(CNC(=O)OCc2ccccc2)cc1 [V-7] | -12.3 | 59.2 | 18.2 | 72.9 | 51 | 85.1 | 0.6 | 36.9 | 4.5 | 85.5 | -7.1 | 47.2 | 5.7 | 5.5 | 27.1 | 96 | -7.8 | inhibition at 100 µM ([9]; compound concentration 100 μM): 72.3% |
| 28.2 | 56.9 | 67.5 | COc1ccc(/C=C/C(=O)NCc2ccc(C(=O)Nc3ccncc3N)cc2)cc1 [V-30] | 38.3 | 69.2 | 42.3 | 71.8 | 60.9 | 83.4 | 44.6 | 69 | 18 | 81.4 | 5.4 | 40.8 | 12.3 | 39.4 | 83.1 | 88.2 | 21.8 | inhibition at 100 µM ([9]; compound concentration 100 μM): 69.9% |
| 14.0 | 42.2 | 85.0 | COc1ccc(COC(=O)NCc2ccc(C(=O)Nc3ccncc3N)cc2)cc1OC [V-96] | -0.9 | 35.2 | -0.4 | 41.7 | 41.1 | 61.6 | 27.8 | 53.3 | 1.9 | 69.6 | -0.8 | 27 | -0.4 | 64.8 | 15.4 | 83.4 | -6.2 | inhibition at 100 µM ([9]; compound concentration 100 μM): 33.4% |
| 6.5 | 22.1 | 39.2 | N-(2-amino-3-pyridyl)-4-[(4-methoxybenzyloxyacyl)aminomethyl]benzamide [V-11] | – | – | – | – | – | – | – | – | – | – | – | – | – | – | – | – | – | Hep3B (inhibition %) ([1]; compound concentration 10 μM): 8.1%; Hep3B (inhibition %) ([1]; compound concentration 100 μM): 53.2%; Hut-78 (inhibition %) ([2]; 10 μM): 10.7%; Hut-78 (inhibition %) ([2]; 100 μM): 60.3%; K562 (inhibition %) ([3]; 10 μM): 29.7%; K562 (inhibition %) ([3]; 100 μM): 82.6%; PC-3 (inhibition %) ([4]; compound concentration 10 μM): 8.1%; PC-3 (inhibition %) ([4]; compound concentration 100 μM): 49.8%; 435s(inhibition %) ([5]; compound concentration 10 μM): −16.5%; 435s(inhibition %) ([5]; compound concentration 100 μM): 85.4%; Colo320 (inhibition %) ([6]; compound concentration 10 μM): 8.9%; Colo320 (inhibition %) ([6]; compound concentration 100 μM): 48.5%; PANC-1 (inhibition %) ([7]; 10 μM): 1.1%; PANC-1 (inhibition %) ([7]; 100 μM): 35.2%; Jurkat E6-1 (inhibition %) ([8]; 10 μM): 26.4%; Jurkat E6-1 (inhibition %) ([8]; 100 μM): 91.0%; A549 (inhibition %) ([9]; compound concentration 10 μM): −7.4%; A549 (inhibition %) ([9]; compound concentration 100 μM): 24.9% |
| 2.8 | 16.8 | 36.7 | Cc1ccc(COC(=O)NCc2ccc(C(=O)Nc3cccnc3N)cc2)cc1 [V-9, N-(2-amino-3-pyridyl)-4-[(4-methylbenzyloxyacyl)aminomethyl]benzamide] | 7.3 | 66.6 | 15 | 43.9 | 49.4 | 83.2 | 0 | 66.7 | -14.3 | 84.1 | 13 | 45.3 | 10.5 | 45.9 | 62.2 | 87.9 | -44.3 | inhibition at 100 µM ([9]; compound concentration 100 μM): -13.1% |
